Holding throughout (type): cell-based
Assay [1] deals with T1, 17-beta-hydroxysteroid dehydrogenase type 2 (Homo sapiens) (UniProt P37059).
T1 sequence (whole entry): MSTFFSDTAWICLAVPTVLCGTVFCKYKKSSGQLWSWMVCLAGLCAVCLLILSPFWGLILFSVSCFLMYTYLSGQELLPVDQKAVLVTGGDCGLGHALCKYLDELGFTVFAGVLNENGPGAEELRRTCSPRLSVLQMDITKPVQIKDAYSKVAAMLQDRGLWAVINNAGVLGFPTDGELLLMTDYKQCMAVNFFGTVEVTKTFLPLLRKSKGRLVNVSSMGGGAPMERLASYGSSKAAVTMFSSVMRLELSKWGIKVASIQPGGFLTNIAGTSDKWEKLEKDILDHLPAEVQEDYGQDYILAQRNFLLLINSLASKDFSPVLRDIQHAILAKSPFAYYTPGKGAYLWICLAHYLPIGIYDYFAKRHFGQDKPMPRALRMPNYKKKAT
Nature of the assay: Inhibitory activity against 17 beta hydroxysteroid dehydrogenase type 2 at 10 uM in MDA-MB-231 cells.

In assay [2] the target is T2, 17-beta-hydroxysteroid dehydrogenase type 1 (Homo sapiens, UniProt P14061).
T2 sequence (P14061 whole entry): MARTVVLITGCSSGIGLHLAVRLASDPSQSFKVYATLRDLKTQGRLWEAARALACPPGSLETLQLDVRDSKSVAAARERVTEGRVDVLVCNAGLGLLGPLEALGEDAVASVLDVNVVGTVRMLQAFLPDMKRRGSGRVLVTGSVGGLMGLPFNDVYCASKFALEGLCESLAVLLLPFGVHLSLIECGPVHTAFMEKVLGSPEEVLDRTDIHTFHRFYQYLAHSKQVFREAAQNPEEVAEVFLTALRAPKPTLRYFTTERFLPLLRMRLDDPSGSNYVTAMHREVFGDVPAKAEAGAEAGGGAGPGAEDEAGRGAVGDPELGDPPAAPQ
The experiment in a line: Inhibitory activity against 17 beta hydroxysteroid dehydrogenase type 1 in T47D cells.

Assay [3] deals with T3, 17-beta-hydroxysteroid dehydrogenase type 1 (Homo sapiens) (UniProt P14061).
T3 sequence (whole entry): T2 sequence (P14061 whole entry)
Nature of the assay: Inhibitory activity against 17 beta hydroxysteroid dehydrogenase type 1 at 10 uM in T47D cells.

Data on 3 molecules can be found in ChEMBL document CHEMBL1143588, “Novel and potent 17beta-hydroxysteroid dehydrogenase type 1 inhibitors” (J Med Chem, 2005).

SMILES strings stand for the structures. pIC50: −log10 of the molar value.

For orientation: inhibition means the relative decrease from the control value, in per cent. Broadly, the pIC50 is the negative decadic logarithm of the IC50, by convention in mol/L. Read a high pIC50 as a small IC50. Turning to `COc1cc2c(cc1O)CCC1[C@@H]2CC[C@]2(C)C(=O)C(CC(=O)NCc3cccnc3)C[C@@H]12` (single isomer, unassigned), the inhibition was determined as 0% in assay [1] and 96% in assay [3]. This molecule also gave a pIC50 in assay [2] of 6.54.
For `C[C@]12CC[C@@H]3c4ccc(O)cc4CCC3[C@@H]1CC(CC(=O)NCc1cccnc1)C2=O` (single isomer, unassigned), in that order: 26%, 97% and 7.43.
For `CCc1cc2c(cc1O)CCC1[C@@H]2CC[C@]2(C)C(=O)C(CC(=O)NCc3cccnc3)C[C@@H]12` (single isomer, unassigned) the same measures were -5%, 99% and 7.57.
